According to patent publication US12257284B2, “Lantibiotics, lantibiotic-producing bacteria, compositions and methods of production and use thereof” (MEMORIAL SLOAN-KETTERING CANCER CENTER, priority 2017, dated 2025):
Non-standard residues stand in square brackets, D forms with d. No end group written: not given here. Dhb = C/C=C(\N)C(=O)O; Dha = C=C(N)C(=O)O

Legend:
VRE [1] = test: VRE cultured with ammonium sulfate precipitated, dialyzed B. producta protein, VRE CFU quantitated; format: cell-based, vancomycin-resistant Enterococcus
Description: 10^7 CFU/mL B. producta was cultured for 24 hours anaerobically at 37° C. in BHIS. The culture supernatant was filtered through a 0.22 μm filter. Ammonium sulfate was added to the filtered culture supernatant at varying concentrations to precipitate proteins. Precipitated proteins were resolubilized in phosphate buffered saline (PBS) (2 mg/mL) and dialyzed. The dialyzed protein was returned to the original culture volume with fresh culture medium and samples were innoculated with 10^3 CFU/mL VRE and cultured for 6 or 24 hours anaerobically at 37° C. […] 10^7 CFU/mL B. producta was cultured for 24 hours anaerobically at 37° C. in BHIS. The culture supernatant was filtered through a 0.22 μm filter. Ammonium sulfate was added to the filtered culture supernatant at varying concentrations to precipitate proteins. Precipitated proteins were resolubilized in phosphate buffered saline (PBS) (2 mg/mL) and dialyzed (the dialyzed protein was returned to the original culture volume with PBS) and samples were innoculated with 10^3 CFU/mL VRE and cultured for 6 or 24 hours anaerobically at 37° C.
10^7 CFU/mL B. producta was cultured for 24 hours anaerobically at 37° C. in BHIS. The culture supernatant was filtered through a 0.22 μm filter. 45% ammonium sulfate was added to the filtered culture supernatant to precipitate proteins. The precipitate was resolubilized in PBS (2 mg/mL), then dialyzed. The dialyzed protein was incubated with Proteinase K (1 mg/mL) for 1 hour at 37° C. These conditions are sufficient to completely digest BSA at a concentration of 100 μg/m, as evidenced by the […] in gel electrophoresis. The dialyzed protein/proteinase K solution was returned to its original volume in fresh culture medium and inoculated with 10^3 CFU/mL VRE the cultured for 6 or 24 hours anaerobically at 37° C.
10^7 CFU/mL B. producta was cultured for 24 hours anaerobically at 37° C. in BHIS. The culture supernatant was filtered through a 0.22 μm filter. 45% ammonium sulfate was added to the filtered culture supernatant to precipitate proteins. The precipitate was resolubilized in PBS (2 mg/mL), then dialyzed. The dialyzed protein was incubated at 100° C. for ten minutes. The heated, dialyzed protein solution was returned to its original volume in fresh culture medium and inoculated with 10^3 CFU/mL VRE the cultured for 6 or 24 hours anaerobically at 37° C.
10^7 CFU/mL B. producta was cultured for 24 hours anaerobically at 37° C. in BHIS. The culture supernatant was filtered through a 0.22 μm filter. Ammonium sulfate was added to the filtered culture supernatant at varying concentrations to precipitate proteins. […] Fecal pellets were collected 0, 5, 10 days after bacterial consortia transplant, and VRE was quantitated.

VRE [2] = test: VRE cultured in cecal supernatant of mice colonized with B. producta strains; format: cell-based, vancomycin-resistant Enterococcus; details: cecal content 7 days post-transplant, 100 mg/mL, filtered; VRE 10^3 CFU/mL, 6 hours; FIG. 20
Description: 6-8 week old, C57BL/6 mice were administered ampicillin (0.5 g/L) in the drinking water for 5 days, and subsequently orally gavaged with a bacterial consortia (10^7 CFU per bacterial isolate). Bacterial consortia for oral gavage were prepared by individually culturing the B. producta Caballero strain, or the B. producta Honda strain, on Columbia base medium (agar, peptones, cornstarch) plus 5% sheep blood agar plates, anaerobically at 37° C. overnight. Each isolate was subsequently harvested and resuspended in reduced phosphate buffered saline (PBS) to a final concentration of 10^8 CFU/mL. 7 days post-transplant, cecal content was harvested and resuspended in PBS to a final concentration of 100 mg/mL. Cecal supernatant was collected by filtration through a 0.22 μm filter. VRE inoculated at 10^3 CFU/mL in the cecal supernatant and incubated at 37° C. aerobically. VRE was cultured for 6 hours and quantitated.

VRE [3] = test: Microscopy of VRE cultured with B. producta factor; format: cell-based, vancomycin-resistant Enterococcus; details: 10^8 CFU/mL VRE, 24 hours
Description: 10^7 CFU/mL B. producta was cultured for 24 hours anaerobically at 37° C. in BHIS. The culture supernatant was filtered through a 0.22 μm filter. Ammonium sulfate was added to the filtered culture supernatant at varying concentrations to precipitate proteins. Precipitated proteins were resolubilized in phosphate buffered saline (PBS) (2 mg/mL) and dialyzed. The dialyzed protein was returned to the original culture volume with supplemented PBS (the dialyzed protein was returned to the original culture volume with PBS) and samples were innoculated with 10^8 CFU/mL VRE and cultured for 24 hours anaerobically at 37° C. Bacteria were fixed onto slides for microscopy.

B. producta = test: Spectrum: bacterial survival with B. producta culture extract; format: cell-based; details: greater than 100 kDa concentrated supernatant; 6, 24 or 48 hours; FIG. 34
Description: (§1) 10^7 CFU/mL B. producta was cultured for 0, 6, 24 hours in BHIS anaerobically at 37° C. The culture supernatant at 0, 6, and 24 hours was filtered through a 0.22 μm filter, then concentrated by ultrafiltration with a molecular weight cut off greater than 100 kDa. The concentrated culture supernatant was then diluted to the original volume with fresh BHIS culture medium. 10^3 CFU/mL VRE, B. producta, C. bolteae, P. distasonis, B. sartorii, C. difficile, K pneumoniae, E. coli, S. aureus, E. faecalis, E. faecium, or L monocytogenes were cultured for 6, 24, or 48 hours anaerobically at 37° C.

B. sartorii = test: as above; format: cell-based; details: greater than 100 kDa concentrated supernatant; 6, 24 or 48 hours; FIG. 34
Description: as §1

C. difficile = test: as above; format: cell-based; details: greater than 100 kDa concentrated supernatant; 6, 24 or 48 hours; FIG. 34
Description: as §1

E. coli = test: as above; format: cell-based; details: greater than 100 kDa concentrated supernatant; 6, 24 or 48 hours; FIG. 34
Description: as §1

E. faecalis = test: as above; format: cell-based; details: greater than 100 kDa concentrated supernatant; 6, 24 or 48 hours; FIG. 34
Description: as §1

E. faecium = test: as above; format: cell-based; details: greater than 100 kDa concentrated supernatant; 6, 24 or 48 hours; FIG. 34
Description: as §1

K. pneumoniae = test: as above; format: cell-based; details: greater than 100 kDa concentrated supernatant; 6, 24 or 48 hours; FIG. 34
Description: as §1

L. monocytogenes = test: as above; format: cell-based; details: greater than 100 kDa concentrated supernatant; 6, 24 or 48 hours; FIG. 34
Description: as §1

P. distasonis = test: as above; format: cell-based; details: greater than 100 kDa concentrated supernatant; 6, 24 or 48 hours; FIG. 34
Description: as §1

S. aureus = test: as above; format: cell-based; details: greater than 100 kDa concentrated supernatant; 6, 24 or 48 hours; FIG. 34
Description: as §1

gram-positive bacteria = test: Minimum inhibitory concentration by serial dilution against gram-positive bacterial strains; format: cell-based; details: dialyzed protein serially diluted in BHIS, 10^5 CFU/mL bacteria, 24 hours; FIG. 35
Description: 10^7 CFU/mL B. producta Caballero strain or Honda strain was cultured for 24 hours in BHIS anaerobically at 37° C. The culture supernatant was filtered through a 0.22 μm filter. Ammonium sulfate was added to the filtered culture supernatant at varying concentrations to precipitate proteins. Precipitated proteins were resolubilized in water (5 mg/mL) and dialyzed. The dialyzed protein or nisin (1:2) were serially diluted with fresh BHIS across a row of wells in a 96 well plate per gram-positive bacteria strain. 10^5 CFU/mL of various gram-positive bacterial strains indicated in FIG. 35 were cultured for 24 hours anaerobically at 37° C. The minimum inhibitory concentration (highest dilution at which gram-positive bacteria growth was inhibited) was thus identified.

VRE [4] = test: VRE cultured in filtered culture supernatants or size fractions, VRE CFU quantitated; format: cell-based, vancomycin-resistant Enterococcus; details: VRE 6 hours
Description: 10^7 CFU/mL B. producta or C. bolteae±10^3 CFU/mL VRE were cultured in BHIS for 6 hours anaerobically at 37° C. The culture supernatants were filtered through a 0.22 μm filter. 10^3 CFU/mL VRE were cultured in the filtered culture supernatants for 2, 6, or 24 hours anaerobically at 37° C. […] 10^7 CFU/mL B. producta, C. bolteae, P. distasonis, or B. sartorii were cultured in BHI overnight (at least 8 hours) anaerobically at 37° C. The culture supernatants were filtered through a 0.22 μm filter and diluted 1:2 in fresh BHIS. 10^3 CFU/mL VRE were cultured in the filtered culture supernatants for 2, 6, or 24 hours anaerobically at 37° C.
10^7 CFU/mL B. producta was cultured for 0, 6, 24 hours in BHIS anaerobically at 37° C. Culture growth was verified by quantitating B. producta CFU at 6, 24, 48, and 72 hours. […] The culture supernatant at 0, 6, and 24 hours was filtered through a 0.22 μm filter, then concentrated by ultrafiltration with a molecular weight cut off greater than 100 kDa. The concentrated culture supernatant was then diluted to the original volume with fresh BHIS culture medium. Concentrated/diluted medium was inoculated with 10^3 CFU/mL VRE and cultured anaerobically at 37° C. for 6, 24, 48 hours.
10^7 CFU/mL B. producta were cultured for 24 hours anaerobically at 37° C. in BHIS. […]

Q: For “B. producta factor: VRE-inhibiting factor secreted by B. producta, a lantibiotic according to the disclosure (SEQ. ID. No.: 3) (I[Dhb][Dha]I[Dha]LA[Dhb]PGAK[Dhb]GALMGAV[Dhb]GILM[Dhb]APVQ[Dhb]A[Dhb]AGAQI[Dhb]GK; not fully specified; also: lantibiotic (lanthionine bridges not given here))”, which “Number of VRE (CFU) over time in PBS (bactericidal effect)” value (VRE [1]; 10^5 CFU/mL VRE, 6-120 hours in PBS, FIG. 18) is on record?
A: permanent decline in the number of VRE

Q: What about the “VRE inhibition after boiling” value (VRE [1]; 45% ammonium sulfate precipitate, 100° C. for ten minutes, FIG. 13) of the same substance?
A: able to inhibit VRE

Q: What about the “VRE inhibition after Proteinase K digestion” value (VRE [1]; 45% ammonium sulfate precipitate, Proteinase K 1 mg/mL, 1 hour at 37° C., FIG. 12) of the same substance?
A: able to inhibit VRE

Q: What about the “VRE inhibition by ammonium sulfate precipitate” value (VRE [1]; precipitate resolubilized, dialyzed, returned to volume with PBS, 6 or 24 hours, FIG. 11) of the same substance?
A: inhibited VRE

Q: And the “VRE growth in cecal supernatant of colonized mice” value (VRE [2])?
A: inhibits VRE

Q: What about the “Phase contrast microscopy of VRE versus control” value (VRE [3]; FIG. 21) of the same substance?
A: smaller, less numerous, more frequently in a single coccus arrangement and surrounded by more cellular debris

Q: What about the “Fluorescence microscopy of VRE (SYTO9 / propidium iodide) versus control” value (VRE [3]; FIG. 22) of the same substance?
A: less viable

Q: What about the “Gram stain light microscopy of VRE versus control” value (VRE [3]; FIG. 23) of the same substance?
A: generally lacked purple staining

Q: What about the “Inhibition of B. producta (survival relative to negative control extract)” value (B. producta) of the same substance?
A: not

Q: And the “Inhibition of B. sartorii (survival relative to negative control extract)” value (B. sartorii)?
A: not

Q: What about the “Inhibition of C. difficile (survival relative to negative control extract)” value (C. difficile) of the same substance?
A: not

Q: What about the “Inhibition of E. coli (survival relative to negative control extract)” value (E. coli) of the same substance?
A: not

Q: What about the “Inhibition of E. faecalis (survival relative to negative control extract)” value (E. faecalis) of the same substance?
A: inhibited

Q: What about the “Inhibition of E. faecium (survival relative to negative control extract)” value (E. faecium) of the same substance?
A: inhibited

Q: What about the “Inhibition of K. pneumoniae (survival relative to negative control extract)” value (K. pneumoniae) of the same substance?
A: not

Q: And the “Inhibition of L. monocytogenes (survival relative to negative control extract)” value (L. monocytogenes)?
A: inhibited

Q: What about the “Inhibition of P. distasonis (survival relative to negative control extract)” value (P. distasonis) of the same substance?
A: not

Q: And the “Inhibition of S. aureus (survival relative to negative control extract)” value (S. aureus)?
A: inhibited

Q: And the “Inhibition of various gram-positive bacterial strains (minimum inhibitory concentration, highest dilution)” value (gram-positive bacteria)?
A: broadly inhibits gram-positive bacteria

Q: For nisin, which “VRE growth (VRE CFU) in filtered culture supernatant or nisin medium” value (VRE [4]; filtered supernatant, nisin extract powder 1 mg per 1 mL medium, FIG. 31 left panel) is on record?
A: inhibited VRE

Q: And the “VRE growth (VRE CFU) with greater than 100 kDa concentrated samples” value (VRE [4]; samples concentrated by ultrafiltration, cut off greater than 100 kDa, diluted to original volume, FIG. 31 right panel)?
A: inhibited VRE
